Test results from US10064839B2, “Methods of treating liver diseases” (Zafgen, Inc., priority 2012, dated 2018).

System: diet induced obese mice (C57BL6)
Assay: Diet induced obese mice, 10 days oral 30 mg/kg: body weight and serum cholesterol
Type: in vivo, mouse
Details: DIO C57BL6 mice, 30 mg/kg oral gavage; for Cholesterol Change: serum
Procedure: Compounds were tested in diet induced obese mice (C57BL6) that were on a 65% high fat diet for 8-10 weeks. Mice were dosed for 10 days by oral gavage with 30 mg/kg of the compounds listed. Their body weights were recorded along with serum chemistries including cholesterol.

SMILES | Body Weight Change [%] | Cholesterol Change
CCN(CC)C/C=C\c1cc(F)ccc1S(=O)(=O)Nc1ccc2c(c1C(=O)O)OC[C@H]1CCCN21 | −2.0 | −24%
CCN(CC)C/C=C\c1ccccc1S(=O)(=O)Cc1ccc(-c2ccoc2)c(OC)c1C(=O)O | −6.0 | No change
